Assay results taken from ChEMBL document CHEMBL5537115, “New broad-spectrum and potent antibacterial agents with dual-targeting mechanism: Promoting FtsZ polymerization and disrupting bacterial membranes” (Eur J Med Chem, 2024).
The source made the active and inactive calls. The calls are words filed in the database; no cut-off is given here.

Tests used:
[1] = test system: Escherichia coli; assay: Antibacterial activity against penicillin-susceptible Escherichia coli ATCC25922 assessed as bacterial growth inhibition incubated for 20 hrs by CLSI based broth microdilution method; format: functional
[2] = test system: Escherichia coli; assay: Induction of membrane potential depolarization in Escherichia coli ATCC25922 measured after 20 mins by diSC35 dye based spectroscopy; format: functional, organism-based
[3] = test system: Staphylococcus aureus; assay: Antibacterial activity against Staphylococcus aureus clinical isolate assessed as bacterial growth inhibition incubated for 20 hrs by CLSI based broth microdilution method; format: functional
[4] = test system: Staphylococcus aureus; assay: Antibacterial activity against methicillin-resistant Staphylococcus aureus ATCC43300 incubated for 18 to 20 hrs; format: functional; details: time 18-20 hrs
[5] = test system: Staphylococcus aureus; assay: Effect on proton gradient of cytoplasmic membrane in Staphylococcus aureus ATCC25923 at 1 ug/ml measured after 20 mins by diSC35 dye based analysis; format: functional, organism-based; details: Cytoplasm membrane, dose 1.0 µg/ml
[6] = test system: Streptococcus pyogenes; assay: Antibacterial activity against erythromycin-susceptible Streptococcus pyogenes 1 assessed as bacterial growth inhibition incubated for 20 hrs by CLSI based broth microdilution method; format: functional
[7] = test system: Staphylococcus aureus; assay: Disruption of inner membrane in Staphylococcus aureus ATCC25923 by PI staining based analysis; format: functional, organism-based; details: time 12.0 min, TDE = time-dependent effect
[8] = Hemolytic activity in mouse erythrocytes at 16 ug/ml incubated for 1 hr by absorbance based assay; format: toxicity, cell-based, Erythrocyte; details: at 16 µg/mL, read-out: Activity
[9] = test system: Acinetobacter baumannii; assay: Antibacterial activity against Acinetobacter baumannii ATCC19606 incubated for 18 to 24 hrs; format: functional; details: time 18-24 hrs
[10] = test system: Escherichia coli; assay: Disruption of outer membrane in Escherichia coli ATCC25922 measured after 10 mins by NPN dye based analysis; format: functional, organism-based; details: dose 4-16 µg/ml
[11] = test system: Staphylococcus aureus; assay: Induction of resistance development in Staphylococcus aureus ATCC25923 assessed as fold increase in MIC at 0.5 times MIC measured after 32 days by multi-passage resistance assay relative to control; format: functional; details: time 32.0 day
[12] = test system: Staphylococcus aureus; assay: Disruption of inner membrane in Staphylococcus aureus ATCC25923 at 0.5 ug/ml measured after 12 mins by PI staining based analysis; format: functional, organism-based; details: dose 0.5 µg/ml
[13] = test system: Staphylococcus aureus; assay: Bactericidal activity against Staphylococcus aureus ATCC25923 measured for 24 hrs by time-kill assay; format: functional, organism-based; details: dose 0.125-0.5 µg/ml
[14] = test system: Staphylococcus aureus; assay: Inhibition of bacterial proliferation of Staphylococcus aureus ATCC25923 at 0.125 ug/ml measured for 24 hrs by time-kill assay; format: functional, organism-based; details: dose 0.125 µg/ml
[15] = test system: Staphylococcus aureus; assay: Inhibition of biofilm formation of Staphylococcus aureus ATCC25923 at 0.5 ug/ml incubated for 20 hrs by crystal violet staining based analysis relative to control; format: functional
[16] = test system: Staphylococcus aureus; assay: Induction of morphological change in Staphylococcus aureus ATCC25923 assessed as leakage of cell contents at 16 times MIC incubated for 2 hrs by TEM analysis; format: functional, organism-based

C[n+]1cc(-c2ccccc2)c(/C=C/c2ccc(C(C)(C)C)cc2)cc1-c1ccc(C(C)(C)C)cc1.[I-]
MIC [1]: 4 µg/mL | Activity [2]: Dose-Dependent Effect | MIC [3]: 0.062 µg/mL | MBC [4]: 0.5 µg/mL | Activity [5]: Active | MIC [6]: 2 µg/mL | Activity [7]: Tde | hemolysis at 1 h, 16 ug/ml [8]: 6.37% | MBC [9]: 1 µg/mL | Activity [10]: Dose-Dependent Effect | fold change (FC) [11]: 2 | Activity [12]: Active | Activity [13]: Dose-Dependent Effect | inhibition [14]: inactive | inhibition at 0.5 µg/mL [15]: 6.06% | Activity [16]: Active
